What follows are compounds tested against T1, HMG-CoA synthase (Rattus norvegicus, UniProt P17425) (assay: HMG-CoA Synthase Inhibition Assay). Conditions: Table I; rat liver enzyme, 1-[14C]-acetyl-CoA incorporation.
T1 construct: The livers from male Charles River CD rats (225-350 g) were homogenized; from tissue; host or cells: rat liver (male Charles River CD rats), 100,000 x g supernatant, ammonium sulfate and DEAE-52 fraction
T1 sequence (P17425 1-520): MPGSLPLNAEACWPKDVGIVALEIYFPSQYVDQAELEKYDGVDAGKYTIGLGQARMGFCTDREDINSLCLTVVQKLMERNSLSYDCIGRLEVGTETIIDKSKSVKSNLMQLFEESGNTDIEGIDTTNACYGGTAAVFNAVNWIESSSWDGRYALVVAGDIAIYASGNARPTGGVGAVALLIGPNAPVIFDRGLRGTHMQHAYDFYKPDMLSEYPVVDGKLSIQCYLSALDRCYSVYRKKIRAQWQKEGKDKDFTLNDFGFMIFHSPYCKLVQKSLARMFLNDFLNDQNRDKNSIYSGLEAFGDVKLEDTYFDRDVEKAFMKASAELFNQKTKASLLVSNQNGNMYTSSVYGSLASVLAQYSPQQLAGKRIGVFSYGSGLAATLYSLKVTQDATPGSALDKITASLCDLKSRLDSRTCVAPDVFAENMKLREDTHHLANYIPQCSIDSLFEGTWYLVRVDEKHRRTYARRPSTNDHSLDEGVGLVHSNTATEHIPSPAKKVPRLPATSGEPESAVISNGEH
Format: biochemical
Procedure: The intrinisic HMG-CoA synthase inhibition activity of the compounds of this invention is measured by the standard in vitro protocol described below:
The livers from male Charles River CD rats (225-350 g) were homogenized in 0.25 M sucrose which was adjusted with phenylmethylsulfonylfluoride (PMSF) and N-p-tosyl-1-lysine chloromethyl ketone (TLCK) so that the final concentration of each was […], respectively. The homogenate was centrifuged at 15,000× g for 20 minutes, the supernatant filtered through a fine nylon screen to remove most of the fat layer and recentrifuged at 100,000× g for 1 hour. This supernatant was removed and 1 M potassium phosphate, dithiothreitol (DTT) and ethylene glycolbis(β-aminoethyl ether)-N,N,N',N'-tetraacetic acid (EGTA) added to give a final concentration of 0.1 M (pH 7.2), 0.5 mM and 0.1 mM, respectively. Solid ammonium sulfate was added to 50% saturation to the protein solution, it was centrifuged at 15,000× g and the supernatant discarded. This precipitated protein could be stored at -70° C. for at least one month with very little loss of activity. The ammonium sulfate precipitate was dissolved in an minimal amount of 0.06 M potassium phosphate buffer (pH 7.2) containing 0.5 mM dithiothreitol and 0.1 mM EGTA (referred to as 0.06 M phosphate buffer) and dialyzed overnight against 2 liters of the same buffer to remove the ammonium sulfate and to inactivate HMG-CoA lyase [Clinkenbeard, et al., J. Biol. Chem. 250, 3108-3116(1975)].
The dialyzed extract was added to a column of DEAE-52 (Whatman) which had been equilibrated with 0.06 M phosphate buffer (10 mg of protein in 1 ml bed volume of the resin). The DEAE-cellulose was eluted with 0.06 M phosphate buffer until the optical density at 280 nm was essentially zero. This fraction contained the β-ketoacetyl-CoA thiolase activity. The HMG-CoA synthase was eluted from the column with 0.1 M phosphate buffer (pH 7.2) containing 0.5 mM DTT and […] EGTA, and was virtually free of all thiolase activity. The protein was precipitated by the addition of ammonium sulfate to give 50% saturation. This solution was stirred for 10 minutes at 4° C. and the precipitate collected by centrifugation at 15,000 rpm for 10 minutes. The supernatant was discarded and the precipitate dissolved in a minimum of 0.06 M phosphate buffer, pH 7.2 (about 10 ml) and the enzyme stored at -80° C.
HMG-CoA Synthase Inhibition Assay
Enzyme protein (ca. 24 mg) was added to a solution containing […] Tris-HCl (pH 8.0), 11.7 μM MgCl2, 1.17 μM ethylenediaminetetraacetic acid (EDTA), 0.58 μM dithiothreitol, and the indicated concentrations of the test compound (added as a 2 mg/ml solution in dimethylsulfoxide). The incubation took place in a volume of 0.085 ml at 30° in a shaking water bath. After 5 minutes, […] of a solution containing acetoacetyl-CoA and 0.1 μCi of 1-[^14 C]-acetyl-CoA was added to give a final concentrations of 0.1 and 0.4 μM, respectively. The incubation was continued for 10 more minutes and the reaction stopped by the addition of […] of the assay mixture to 0.2 ml of 6N HCl in a glass scintillation vial. The vial was heated for 1 hour at 120° after which time 0.2 ml more of 6N HCl was again added to each vial and the heating continued for another hour. Following this, 1.0 ml of 0.9% saline was added to each vial and finally 10 ml of scintillation liquid. Radioactivity was determined in a Packard Tri-Carb liquid scintillation counter. Percent inhibition is calculated by the formula: [formula]
IC50 values were determined by plotting the log of the concentration of the test compound verses the percentage inhibition and fitting a straight line to the resulting data by using the least squares method.
For `CC[C@@H]1C(=O)N(S(=O)(=O)c2ccc(C)cc2)[C@@H]1COC(=O)c1ccsc1` (relative stereo) [Table I a], the IC50 was 710 nM.
In the case of `COc1ccc(C(=O)OC[C@@H]2[C@H](CO)C(=O)N2S(=O)(=O)c2ccc(C)cc2)cc1` (relative stereo) [Table I aa], the IC50 is reported as 180 nM.
For `CC[C@@H]1C(=O)N(S(=O)(=O)c2ccc(C)cc2)[C@@H]1COC(=O)c1cccc(NS(C)(=O)=O)c1` (relative stereo) [Table I b], the IC50 was 25 nM.
`CC[C@@H]1C(=O)N(S(=O)(=O)c2ccc(C)cc2)[C@@H]1COC(=O)c1cccnc1` (relative stereo) [Table I bb] was tested, and the IC50 was 64 nM.
Compound `CC[C@@H]1C(=O)N(S(=O)(=O)c2ccc(C)cc2)[C@@H]1COC(=O)c1ccccc1[N+](=O)[O-]` (relative stereo) [Table I c] has an IC50 of 23 nM.
Work on `CC[C@@H]1C(=O)N(S(=O)(=O)c2ccc(C)cc2)[C@@H]1COC(=O)c1ccc(OC)cc1` (relative stereo) [Table I cc] yielded an IC50 of 30 nM.
`CC[C@@H]1C(=O)N(S(=O)(=O)c2ccc(C)cc2)[C@@H]1COC(=O)c1ccncc1` (relative stereo) [Table I d] was tested, and the IC50 was 62 nM.
`CC[C@@H]1C(=O)N(S(=O)(=O)c2ccc(C)cc2)[C@@H]1COC(=O)c1ccccc1` (relative stereo) [Table I dd] showed an IC50 of 110 nM.
With `CC[C@@H]1C(=O)N(S(=O)(=O)c2ccc(C)cc2)[C@@H]1COC(=O)c1ccccn1` (relative stereo) [Table I e] the IC50 was 54 nM.
Work on `CC[C@@H]1C(=O)N(S(=O)(=O)c2ccc(C)cc2)[C@@H]1COC(=O)c1cc2ccccc2oc1=O` (relative stereo) [Table I ee] yielded an IC50 of 50 nM.
`CC[C@@H]1C(=O)N(S(=O)(=O)c2ccc(C)cc2)[C@@H]1COC(=O)c1ccc(OC)nc1` (relative stereo) [Table I f] gave an IC50 of 41 nM.
Compound `CC[C@@H]1C(=O)N(S(=O)(=O)c2ccc(C)cc2)[C@@H]1COC(=O)c1cc2ccccc2o1` (relative stereo) [Table I ff] has an IC50 of 33 nM.
`CC[C@@H]1C(=O)N(S(=O)(=O)c2ccc(C)cc2)[C@@H]1COC(=O)c1ccco1` (relative stereo) [Table I g] showed an IC50 of 7.9 nM.
Compound `CCCCc1ccc(C(=O)OC[C@@H]2[C@H](CC)C(=O)N2S(=O)(=O)c2ccc(C)cc2)nc1` (relative stereo) [Table I h] has an IC50 of 45 nM.
Compound `COc1ccc(C(=O)OC[C@@H]2[C@H](C(C)C)C(=O)N2S(=O)(=O)c2ccc(C)cc2)cc1` (relative stereo) [Table I hh] has an IC50 of 130 nM.
`CC[C@@H]1C(=O)N(S(=O)(=O)c2ccc(C)cc2)[C@@H]1COC(=O)c1ccc(C(=O)OC)cc1` (relative stereo) [Table I ii] was tested, and the IC50 was 8.5 nM.
`CCCCNC(=O)c1ccc(C(=O)OC[C@@H]2[C@H](CC)C(=O)N2S(=O)(=O)c2ccc(C)cc2)cc1` (relative stereo) [Table I jj] was tested, and the IC50 was 20 nM.
Work on `CC[C@@H]1C(=O)N(S(=O)(=O)c2ccc(C)cc2)[C@@H]1COC(=O)c1cccc([N+](=O)[O-])c1` (relative stereo) [Table I k] yielded an IC50 of 39 nM.
Compound `CC[C@@H]1C(=O)N(S(=O)(=O)c2ccc(C)cc2)[C@@H]1COC(=O)c1ccc(N)cc1` (relative stereo) [Table I kk] has an IC50 of 47 nM.
Work on `CC[C@@H]1C(=O)N(S(=O)(=O)c2ccc(C)cc2)[C@@H]1COC(=O)c1ccccc1NS(C)(=O)=O` (relative stereo) [Table I l] yielded an IC50 of 31 nM.
`C=CCOc1c(OC)cc(C(=O)OC[C@@H]2[C@H](CC)C(=O)N2S(=O)(=O)c2ccc(C)cc2)cc1[N+](=O)[O-]` (relative stereo) [Table I ll] was tested, and the IC50 was 160 nM.
With `CC[C@@H]1C(=O)N(S(=O)(=O)c2ccc(C)cc2)[C@@H]1COC(=O)c1ccnnc1` (relative stereo) [Table I m] the IC50 was 82 nM.
Compound `C=CCOc1c(NC(C)=O)cc(C(=O)OC[C@@H]2[C@H](CC)C(=O)N2S(=O)(=O)c2ccc(C)cc2)cc1OC` (relative stereo) [Table I mm] has an IC50 of 300 nM.
With `CC[C@@H]1C(=O)N(S(=O)(=O)c2ccc(C)cc2)[C@@H]1COC(=O)c1ccccc1N` (relative stereo) [Table I n] the IC50 was 31 nM.
`CC[C@@H]1C(=O)N(S(=O)(=O)c2ccc(C)cc2)[C@@H]1COC(=O)c1ccc(NS(C)(=O)=O)cc1` (relative stereo) [Table I nn] gave an IC50 of 16 nM.
With `CC[C@@H]1C(=O)N(S(=O)(=O)c2ccc(C)cc2)[C@@H]1COC(=O)c1ccoc1` (relative stereo) [Table I o] the IC50 was 320 nM.
Work on `CC[C@@H]1C(=O)N(S(=O)(=O)c2ccc(C)cc2)[C@@H]1COC(=O)c1cnc(OC)c(OC)c1` (relative stereo) [Table I oo] yielded an IC50 of 38 nM.
In the case of `CC[C@@H]1C(=O)N(S(=O)(=O)c2ccc(C)cc2)[C@@H]1COC(=O)c1ccc2ccccc2n1` (relative stereo) [Table I p], the IC50 is reported as 21 nM.
`CC[C@@H]1C(=O)N(S(=O)(=O)c2ccc(C)cc2)[C@@H]1COC(=O)c1ccc(OC)c(OC)n1` (relative stereo) [Table I pp] gave an IC50 of 89 nM.
With `CC[C@@H]1C(=O)N(S(=O)(=O)c2ccc(C)cc2)[C@@H]1COC(=O)c1ccc(OCc2ccccc2)cc1` (relative stereo) [Table I q] the IC50 was 40 nM.
For `CC[C@@H]1C(=O)N(S(=O)(=O)c2ccc(C)cc2)[C@@H]1COC(=O)c1csc(OC)n1` (relative stereo) [Table I qq], the IC50 was 45 nM.
With `CC[C@@H]1C(=O)N(S(=O)(=O)c2ccc(C)cc2)[C@@H]1COC(=O)c1ccnc2ccccc12` (relative stereo) [Table I r] the IC50 was 25 nM.
In the case of `CCC[C@@H]1C(=O)N(S(=O)(=O)c2ccc(C)cc2)[C@H]1COC(=O)c1ccc(OC)cc1` (relative stereo) [Table I rr], the IC50 is reported as 35 nM.
Work on `CC[C@@H]1C(=O)N(S(=O)(=O)c2ccc(C)cc2)[C@@H]1COC(=O)c1cccs1` (relative stereo) [Table I s] yielded an IC50 of 38 nM.
With `COc1ccc(C(=O)OC[C@H]2[C@H](CO)C(=O)N2S(=O)(=O)c2ccc(C)cc2)cc1` (relative stereo) [Table I ss] the IC50 was 150 nM.
In the case of `CC[C@@H]1C(=O)N(S(=O)(=O)c2ccc(C)cc2)[C@@H]1COC(=O)c1cccnc1Oc1ccccc1` (relative stereo) [Table I t], the IC50 is reported as 33 nM.
`CC[C@@H]1C(=O)N(S(=O)(=O)c2ccc(C)cc2)[C@H]1COC(=O)c1ccc(OC)cc1` (relative stereo) [Table I tt] showed an IC50 of 170 nM.
`CC[C@@H]1C(=O)N(S(=O)(=O)c2ccc(C)cc2)[C@@H]1COC(=O)c1cccc(NC(C)=O)c1` (relative stereo) [Table I u] showed an IC50 of 72 nM.
Work on `CC[C@@H]1C(=O)N(S(=O)(=O)c2ccc(C)cc2)[C@@H]1COC(=O)c1cccc(N)c1` (relative stereo) [Table I v] yielded an IC50 of 45 nM.
In the case of `CC[C@@H]1C(=O)N(S(=O)(=O)c2ccc(C)cc2)[C@@H]1COC(=O)c1ccc(C(=O)OC(c2ccccc2)c2ccccc2)cc1` (relative stereo) [Table I w], the IC50 is reported as 62 nM.
